6 molecules from patent US9440982B2 (Eolas Therapeutics, Inc., priority 2012, dated 2016) can be followed below.

Read-outs that look alike come from different tables or passages of the source.

One series concerns Hcrt-R1 WT and KO mice. In words: Nicotine self-administration assay (mice), with food self-administration. It is filed as in vivo. To be noted: for food self-administration (SA): KO and WT mice, systemic administration 30 min prior to the SA session; for nicotine SA: doses 0, 5 and 10 mg/kg. The source says:
To generate Hcrt-R1^+/+ and […] mice, breeding pairs of male and female Hcrt-R1^+/− mice that were backcrossed >10 generations on a C57BL/6 background were obtained from Jackson Laboratory (Bar Harbor, Me.). For all experiments, mice weighing 25-35 g were housed in groups of 2-3 per cage, in a temperature-controlled vivarium under a reversed 12-h light/dark cycle (lights off at 8 am). Food and water were provided ad libitum until behavioral training commenced. During training, mice were food-restricted to maintain ˜85-90% of their free-feeding body weight. Behavioral testing occurred during the dark portion of the light/dark cycle between the hours of 9 am-1 pm, during the early portion of the dark phase of the cycle. All procedures were conducted in strict adherence with the National Institutes of Health Guide for the Care and Use of Laboratory Animals and were approved by the Institutional Animal Care and Use Committee of The Scripps Research Institute.
Mice were anesthetized by inhalation of 1-3% isoflurane in oxygen and silastic catheters were inserted into the jugular veins. Briefly, the catheters consisted of a 6 cm length of silastic tubing fitted to a guide cannula (Plastics One, Wallingford, Conn.), bent at a curved right angle and encased in dental acrylic. The catheter tubing was passed subcutaneously from each animal's back to the right jugular vein, and 1 cm length of the catheter tip was inserted into the vein. After surgery, catheters were flushed daily with 0.1 ml of a heparinized (30 USP units/ml) sterile saline solution. Following 7 d of surgical recovery, mice were mildly food restricted to 85-90% of their free-feeding body weight and trained to press a lever in an operant chamber (Med Associates, St. Albans, Vt.) for food pellets (20 mg; TestDiet, Richmond, Ind.) under a fixed-ratio 5, time out 20-s (FR5TO20 s) schedule of reinforcement […]. Once stable responding was achieved (>25 pellets per session), mice were permitted to acquire IV nicotine self-administration by autoshaping during 1-h daily sessions, 7 days per week. Nicotine was delivered through the tubing into the IV catheter by a Razel syringe pump (Med Associates). […] After 1 week, the nicotine dose was increased to 0.1 mg/kg/inf for the remainder of the experiment, including subsequent training and test sessions. […] During the TO period, responding on the lever was recorded but without scheduled consequence. […]
For Hcrt-R1 re-expression studies, the human Hcrt-R1 gene was cloned into the pCDF1 lentivirus expression vector containing copGFP (GFP cloned from copepod Pontellina plumata) from Systems Biosciences. […] Viral supernatant titres were determined using the Lentivector Rapid Titer Kit from System Biosciences, according to the manufacturer's instructions. […]

For another series, the target named is T1, OX1 (Homo sapiens, UniProt O43613).
T1 construct: expressed in transfected cells; host or cells: CHO (CHO-OX1, kept under selection antibiotic)
T1 sequence (O43613 1-425): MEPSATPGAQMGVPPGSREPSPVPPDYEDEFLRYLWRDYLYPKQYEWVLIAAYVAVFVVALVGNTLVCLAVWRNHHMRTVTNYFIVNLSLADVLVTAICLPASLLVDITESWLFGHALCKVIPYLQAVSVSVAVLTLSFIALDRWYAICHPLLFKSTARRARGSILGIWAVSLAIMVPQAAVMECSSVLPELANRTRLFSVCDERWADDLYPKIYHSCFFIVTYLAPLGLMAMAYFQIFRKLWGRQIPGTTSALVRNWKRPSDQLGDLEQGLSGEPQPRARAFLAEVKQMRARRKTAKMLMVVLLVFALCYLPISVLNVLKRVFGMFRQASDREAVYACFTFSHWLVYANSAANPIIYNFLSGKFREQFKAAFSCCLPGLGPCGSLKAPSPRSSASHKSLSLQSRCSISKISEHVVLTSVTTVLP
As to the kind of experiment: Orexin receptor cell-based functional assay, [Ca2+]i by FLIPR, CHO-OX1 cells. In a few lines: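 CHO cells expressing human OX1 or OX2 loaded with calcium dye plus 2.5 mM probenecid at 37° C (calcium4, 30 min, or calcium6, 2 h), then exposed to compounds (0.1 nM-10 μM) for 30 min. Intracellular Ca2+ measured on FLIPR; antagonist format.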

In another series the target is T2, CYP3A4 (Homo sapiens, UniProt P08684).
T2 construct: pre-incubated with human liver microsomes and NADPH; from tissue; host or cells: human liver microsomes
As to the kind of experiment: Cytochrome P450 inhibition assay (midazolam hydroxylation). Type of series: in vitro ADME. To be noted: human, human liver microsomes, probe midazolam (hydroxylation to 1′-hydroxymidazolam), 10 μM test compound, midazolam at approximately its Km. The method in brief: (§1)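 Human liver microsomes; CYP3A4 activity as midazolam 1′-hydroxylation with substrate near Km, with or without 10 μM test compound, read as percent inhibition. For time-dependent inhibition, parallel samples were preincubated 30 min with NADPH before substrate, and percent inhibition compared with non-preincubated samples.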
For orientation: Liver microsomes are vesicles of endoplasmic reticulum, rich in cytochrome P450 enzymes.

A further series concerns rats. In words: Nicotine self-administration assay (rats), with food responding. Type of series: in vivo. To be noted: several doses. The source says: For all experiments, rats weighing 250-300 g were housed in groups of […] per cage, in a temperature-controlled vivarium under a reversed 12-h light/dark cycle (lights off at 8 am). Food and water were provided ad libitum until behavioral training commences. During training, rats were food-restricted to maintain ˜85-90% of their free-feeding body weight. Behavioral testing occurred during the dark portion of the light/dark cycle between the hours of 9 am-1 pm, during the early portion of the dark phase of the cycle. All procedures were conducted in strict adherence with the National Institutes of Health Guide for the Care and Use of Laboratory Animals and are approved by the Institutional Animal Care and Use Committee of The Scripps Research Institute.
Rats were anesthetized by inhalation of 1-3% isoflurane in oxygen and silastic catheters were inserted into the jugular veins. Briefly, the catheters consist of a 14 cm length of silastic tubing fitted to a guide cannula (Plastics One, Wallingford, Conn.), bent at a curved right angle and encased in dental acrylic. The catheter tubing was passed subcutaneously from each animal's back to the right jugular vein, and 1 cm length of the catheter tip was inserted into the vein. […] During the TO period, responding on the lever was recorded but without scheduled consequence. […]

Series [1] deals with T3, cytochrome P450 3A4 isoform (Homo sapiens, UniProt P08684).
T3 construct: pre-incubated with human liver microsomes and NADPH; from tissue; host or cells: human liver microsomes
In words: Cytochrome P450 inhibition assay (midazolam hydroxylation). Type of series: in vitro ADME. To be noted: 10 μM test compound; midazolam at approximately its Km; human liver microsomes. The method in brief: as §1

Setting [2] is: CHO-OX1 cells, [Ca2+]i by FLIPR, antagonist dose-range 0.1 nM-10 μM, EC90 of OXA, read-out: OX1.

The inhibition is the percentage by which the read-out fell short of the control.

T3 sequence (P08684 whole entry, canonical isoform): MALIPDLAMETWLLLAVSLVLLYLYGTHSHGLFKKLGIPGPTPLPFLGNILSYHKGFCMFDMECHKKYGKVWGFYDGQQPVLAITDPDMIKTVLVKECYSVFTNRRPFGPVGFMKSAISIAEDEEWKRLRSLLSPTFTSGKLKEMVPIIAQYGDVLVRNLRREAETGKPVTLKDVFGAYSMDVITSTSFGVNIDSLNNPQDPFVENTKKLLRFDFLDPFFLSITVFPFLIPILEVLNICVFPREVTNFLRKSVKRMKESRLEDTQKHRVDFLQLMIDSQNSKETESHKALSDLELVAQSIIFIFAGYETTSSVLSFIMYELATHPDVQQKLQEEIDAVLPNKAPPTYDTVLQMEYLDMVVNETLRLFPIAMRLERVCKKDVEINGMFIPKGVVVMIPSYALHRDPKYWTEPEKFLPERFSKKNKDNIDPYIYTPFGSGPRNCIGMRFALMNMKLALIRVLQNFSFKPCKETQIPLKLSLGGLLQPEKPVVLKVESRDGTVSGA
T2 sequence (P08684 whole entry): as the sequence (P08684 whole entry, canonical isoform) above

Consider `Cc1nc(C(=O)N2CCC[C@@H](C)[C@H]2CNc2ccc(C(F)(F)F)cn2)c(-c2ccc(F)cc2)s1` (racemic) [Example 11, rac-cis-(5-(4-Fluorophenyl)-2-methylthiazol-4-yl)(3-methyl-2-(((5-(trifluoromethyl)pyridin-2-yl)amino)methyl)piperidin-1-yl)methanone], for which, in the series with Hcrt-R1 WT and KO mice, the “food self-administration (SA)” value is “no effect”. The IC50 amounted to 8 nM at OX1 (Table 2, CHO-OX1 cells, EC90 of OXA, read-out: IC50 Bioactivity OX1) and 8 nM on OX1 (Table 6, racemate vs enantiomers, read-out: OX1 IC50).
In turn, `Cc1ccc(-c2cnn(C)c2)c(C(=O)N2CCC[C@@H](C)[C@H]2CNc2ccc(C(F)(F)F)cn2)c1` [Example A1, ((2S,3R)-3-Methyl-2-(((5-(trifluoromethyl)pyridin-2-yl)amino)methyl)piperidin-1-yl)(5-methyl-2-(1-methyl-1H-pyrazol-4-yl)phenyl)methanone] returned an inhibition at 10 µM against CYP3A4 of 98%. In addition, in the series on rats, the food intake entry is listed as “does not have a significant effect” and the nicotine self-administration entry was “dose-dependent reduction”.
For `C[C@@H]1CCCN(C(=O)c2cccc(F)c2-c2ncccn2)[C@@H]1CNc1ncc(C(F)(F)F)cn1` [Example A230, (3-Fluoro-2-(pyrimidin-2-yl)phenyl)((2S,3R)-3-methyl-2-(((5-(trifluoromethyl)pyrimidin-2-yl)amino)methyl)piperidin-1-yl)methanone], the “% CYP3A4 Inhibition” value in series [1] came out at 50%. Also, at OX1 (setting [2]), the IC50 came out at 5 nM.
For `C[C@@H]1CCCN(C(=O)c2cccc(F)c2-c2ncccn2)[C@@H]1CNc1ccc(Cl)cn1` [Example A232, ((2S,3R)-2-(((5-chloropyridin-2-yl)amino)methyl)-3-methylpiperidin-1-yl)(3-fluoro-2-(pyrimidin-2-yl)phenyl)methanone] the same measures were 65% and 8 nM.
The matching figures for `C[C@@H]1CCCN(C(=O)c2cc(F)c(F)cc2-c2ncccn2)[C@@H]1CNc1ccc(C(F)(F)F)cn1` [Example A242, (4,5-Difluoro-2-(pyrimidin-2-yl)phenyl)((2S,3R)-3-methyl-2-(((5-(trifluoromethyl)pyridin-2-yl)amino)methyl)piperidin-1-yl)methanone]: 87% and 24 nM.
Take `CC1(C)OC[C@H](NC(=O)Nc2ccc(Br)cc2Br)[C@H](c2ccccc2)O1` [JNJ10397049]: the “food self-administration (SA)” value in the series with Hcrt-R1 WT and KO mice is “no effect”. The “nicotine SA” value in the series on Hcrt-R1 WT and KO mice (KO mice) is on record as “marginal decrease”; in the series on Hcrt-R1 WT and KO mice (WT mice), “no effect”.
